Results on 34 compounds are retold here after ChEMBL document CHEMBL1139178, “Probing acid replacements of thiophene PTP1B inhibitors” (Bioorg Med Chem Lett, 2007).

Tested on in one series: not listed separately
The series can be described thus: Permeability of compound by PAMPA. Format: ADME. The settings on record: read-out: permeability.
As for `Cc1c(N2CC(=O)NS2(=O)=O)csc1-c1cccc(NC2CCN(S(=O)(=O)Cc3ccccc3)CC2)c1`, the Papp was determined as 0.19 ×10⁻⁶ cm/s.

With `O=C1CN(c2c(Cl)sc(-c3ccccc3)c2Cl)S(=O)(=O)N1`, the Papp is 3.54 ×10⁻⁶ cm/s. Regarding `Cc1c(-c2cccc(OC3CCN(S(=O)(=O)Cc4ccccc4)CC3)c2)sc(-c2nn[nH]n2)c1OCC(=O)O`, the Papp came to 0.22 ×10⁻⁶ cm/s.

The target of another series is T1, Tyrosine-protein phosphatase non-receptor type 1 (Homo sapiens, UniProt P18031).
T1 sequence (P18031 whole entry): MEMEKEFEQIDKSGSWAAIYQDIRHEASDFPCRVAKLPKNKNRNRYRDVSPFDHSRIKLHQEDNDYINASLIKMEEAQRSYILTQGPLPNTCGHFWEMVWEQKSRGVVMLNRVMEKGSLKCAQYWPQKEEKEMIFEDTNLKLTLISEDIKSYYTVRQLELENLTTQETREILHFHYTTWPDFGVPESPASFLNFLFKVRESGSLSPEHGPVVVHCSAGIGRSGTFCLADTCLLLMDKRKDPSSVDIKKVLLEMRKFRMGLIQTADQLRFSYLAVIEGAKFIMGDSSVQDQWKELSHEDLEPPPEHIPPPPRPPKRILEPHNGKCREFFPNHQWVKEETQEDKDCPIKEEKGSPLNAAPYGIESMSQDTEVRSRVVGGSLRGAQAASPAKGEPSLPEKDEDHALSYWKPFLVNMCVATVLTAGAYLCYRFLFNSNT
The series can be described thus: Inhibition of PTP1B assessed as pNPP hydrolysis.
Conditions: not given
Regarding `Cc1c(N2CC(=O)NS2(=O)=O)csc1-c1cccc(NC2CCN(S(=O)(=O)Cc3ccccc3)CC2)c1`, the Ki is 4.3 µM. `NNC(=O)c1sc(Br)c(Br)c1OCC(=O)O`: the IC50 is above 2500 µM. For the compound `NC(=O)c1sc(Br)c(Br)c1OCC(=O)O`, the IC50 was above 2500 µM. On the same count and under the same terms, for `O=C(O)COc1c(C(=O)Nc2ccn[nH]2)sc(Br)c1Br` the value was above 2500 µM; for `N#CCOc1c(C(=O)O)sc(Br)c1Br`, above 2500 µM.

As to `CCc1nc(-c2sc(Br)c(Br)c2OCC(=O)O)no1`, the IC50 is above 2500 µM.

Turning to `O=C(O)COc1c(-c2nnn[nH]2)sc(Br)c1Br`, the IC50 was 430 µM and the Ki stood at 270 µM. As for `O=C(O)c1sc(Br)c(Br)c1OCCO`, the IC50 was above 2500 µM. `O=C(O)c1sc(Br)c(Br)c1OCC(O)CO` (stereo not drawn): the IC50 is above 2500 µM. Take `O=C(O)COc1csc(Br)c1Br`: the IC50 was above 2500 µM. As for `Cc1c(-c2ccccc2)sc(-c2nnn[nH]2)c1OCC(=O)O`, the Ki is 170 µM. On the same count and under the same terms, for `CC(=O)N(c1cccc(-c2sc(-c3nn[nH]n3)c(OCC(=O)O)c2Br)c1)C1CC(C)(C)CC(C)(C)C1` the value was 4.6 µM. As to `CC(=O)Nc1sc(Br)c(Br)c1OCC(=O)O`, the IC50 is above 2500 µM. On the same count and under the same terms, for `C=CCc1sc(Br)c(Br)c1OCC(=O)O` the value was 165 µM.

`N#Cc1sc(Br)c(Br)c1OCC(=O)O`: the IC50 was above 2500 µM. With `O=C1CN(c2csc(-c3ccccc3)c2Br)S(=O)(=O)N1`, the IC50 turned out to be 29 µM. The same measure, in the same setting: for `O=C(O)COc1c(C(=O)O)sc(Br)c1Br` the value was 29 µM. Regarding `C=CCOc1c(C(=O)O)sc(Br)c1Br`, the IC50 is above 2500 µM.

For the compound `O=C(O)c1sc(Br)c(Br)c1OCC(F)(F)F`, the IC50 was above 2500 µM. On the same count and under the same terms, for `O=C(O)c1sc(Br)c(Br)c1OCc1nn[nH]n1` the value was above 2500 µM; for `O=C(O)COc1c(C(=O)Nc2nccs2)sc(Br)c1Br`, above 2500 µM. Take `Cc1c(N2CC(=O)NS2(=O)=O)csc1-c1cccc(NC2CCCCC2)c1`: the Ki worked out at 12 µM.

As to `O=C(O)COc1c(C(=O)N2CCOCC2)sc(Br)c1Br`, the IC50 was 210 µM. On the same count and under the same terms, for `Cc1nc(-c2sc(Br)c(Br)c2OCC(=O)O)no1` the value was above 2500 µM. As for `CC(C)c1nc(-c2sc(Br)c(Br)c2OCC(=O)O)no1`, the IC50 is above 2500 µM. `O=C(COc1c(C(=O)O)sc(Br)c1Br)NO`: the IC50 is above 2500 µM.

In the case of `O=C(O)COc1c(C(=O)CO)sc(Br)c1Br`, the IC50 turned out to be 330 µM and the Ki was found to be 210 µM. In the case of `O=C(O)COc1c(-c2nnn[nH]2)sc(-c2ccccc2)c1Br`, the Ki was found to be 20 µM. Same read-out and setting: for `O=C(O)COc1c(-c2nnn[nH]2)sc(-c2cccc(NC3CCCCC3)c2)c1Br` the value was 18 µM. In the case of `CC1(C)CC(Nc2cccc(-c3sc(-c4nn[nH]n4)c(OCC(=O)O)c3Br)c2)CC(C)(C)C1`, the Ki worked out at 1.6 µM. Still for that read-out and setting: for `Cc1c(-c2cccc(OC3CCN(S(=O)(=O)Cc4ccccc4)CC3)c2)sc(-c2nn[nH]n2)c1OCC(=O)O` the value was 1.3 µM.

For `O=C(O)COc1cc(-c2ccccc2)sc1-c1nn[nH]n1`, the Ki was 120 µM. Consider `O=C(O)COc1c(CO)sc(Br)c1Br`, for which the IC50 was above 2500 µM.
